# Test results published in US20250075126A1, “DIQUATERNARY COMPOUNDS FOR CORROSION INHIBITION AND METHODS OF USE THEREOF” (ChampionX LLC, priority 2023, published 2025).
# Experiments:
# [1] = Partitioning test, brine/oil, LC-MS analysis; format: physicochemical; conditions: 50 ppm dosed into oil layer; 50 mL synthetic brine, 25 mL aromatic 150, 25 mL LVT 200; room temperature; 1 hour rest
# Experimental: Additional comparison testing was conducted on the alkyl diquaternary compound corrosion inhibitor of Example 1 (corrosion inhibitor VIa) compared to as conventional quaternary ammonium compounds. Partitioning tests were conducted of the corrosion inhibitor (VIa) and a quaternary ammonium compound (trimethylstearyl benzyl chloride quat) to determine the partitioning coefficient via LC-MS (Liquid Chromatography-Mass Spectroscopy) analysis.
# At room temperature, 50 mL of the synthetic brine of Table 1, 25 mL of aromatic 150, and 25 mL of LVT 200 were pipetted into a 125-mL separational funnel. 50 ppm of the corrosion inhibitor (VIa) or trimethylstearyl benzyl chloride quat were dosed into the oil layer of the funnel. The cap was inserted into the funnel and the mixture was shaken vigorously for one minute and then set for an hour. After the hour rest, the bottom layer (brine layer) was drained and collected for LC-MS analysis. LC-MS analysis determines the amount of the corrosion inhibitor (VIa) and trimethylstearyl benzyl chloride quat that partitioned into the brine phase. The amount found in the brine phase was compared to the original amount introduced into the oil phase of the brine/oil solution (50 ppm) and a percentage amount is calculated. The percent amount of the corrosion inhibitor (VIa) and trimethylstearyl benzyl chloride quat present in the brine phase is shown in Table 4.
# [2] = Bubble cell test, corrosion rate by linear polarization resistance (LPR); conditions: 66° C.; for % Protection: 10 ppm CI composition (2 ppm active) with 0.5 ppm 2-mercaptoethanol, versus avg. blank corrosion rate, 22 hour; for Corrosion rate after 22 hour CI injection: 10 ppm CI composition (20% active = 2 ppm active) with 0.5 ppm 2-mercaptoethanol, CO2-saturated synthetic brine 80% / LVT-200 20%, 100 rpm
# Experimental: Examples were conducted to assess the corrosion inhibitors produced in Example 1 using bubble cell tests to assess corrosion performance using linear polarization resistance testing. The corrosion inhibitor was combined with the sulfur synergist 2-mercaptoethanol.
# The bubble test simulates low flow areas where little or no mixing of water and oil occurs. The test was conducted using synthetic brine (80% of the brine and 20% of a hydrocarbon containing LVT-200) as shown in Table 1.
# The brine was placed into kettles and purged with carbon dioxide resulting in carbon dioxide saturated brine. The brine was continually purged with carbon dioxide at 1 bar CO2 to saturate the brine prior to starting the test for a 2 hour pre-corrode. After the test began, the test cell was blanketed with carbon dioxide one hour prior to electrode insertion and through the duration of the test to maintain saturation. The kettles were stirred at 100 revolutions per minute (rpm) for the duration of the test at 66° C.
# The corrosion rate was measured by Linear Polarization Resistance (LPR) techniques. The working electrode used was carbon steel (C1018 grade). The counter and reference electrodes were both 1018 carbon steel. The electrodes were all cleaned and polished prior to testing. Data were collected for 2 hours before 10 ppm of the corrosion inhibitor composition (containing 20% of the reaction product corrosion inhibitor) was added to the hydrocarbon phase, equating to 2 ppm of the active reaction product corrosion inhibitor with 0.5 ppm 2-mercaptoethanol being introduced into the test cell. Data were collected overnight for 22 hour test duration.
compound,measurement,setting,value
CCCCCCCCCCCCCCCCCC[N+](C)(C)CC(O)C[N+](CCO)(CCO)CCO (stereo not drawn) [VIa],% Partitioning to brine phase,[1],84.1%
same,% Protection,[2],99.3%
same,Corrosion rate after 22 hour CI injection,[2],1.5 mpy
alkyl dimethyl benzyl chloride quat,% Protection,[2],99.3%
same,Corrosion rate after 22 hour CI injection,[2],1.4 mpy
trimethylstearyl benzyl chloride quat,% Partitioning to brine phase,[1],28.4%
